Measurements from ChEMBL document CHEMBL1201862, “PubChem BioAssay data set” (2004).
Activity calls are given as the source filed them.

What was measured:
[1] = HIV-1 Vif–A3G interaction blockers – biochemical, TR-FRET, GST-Vif 1-94, biotin-A3G peptide, dose response retest, primary screen (AID 1117319); type: functional;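 further: TR-FRET signal of purified GST-Vif binding a biotinylated A3G peptide; inhibitors lower the FRET signal by blocking Vif and A3G binding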
[2] = molecular target: Peroxisome proliferator-activated receptor gamma/Nuclear receptor coactivator 3 (Homo sapiens, UniProt P37231); type: functional;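 further: agonist potency for raising coactivator recruitment to the receptor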
[3] = molecular target: Peroxisome proliferator-activated receptor gamma/Nuclear receptor coactivator 2 (Homo sapiens, UniProt P37231); type: functional;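 further: agonist potency for raising coactivator recruitment to the receptor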
[4] = molecular target: Peroxisome proliferator-activated receptor gamma/Nuclear receptor coactivator 1 (Homo sapiens, UniProt P37231); type: functional;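 further: agonist potency as compounds enhance coactivator SRC-1 recruitment to PPARgamma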
[5] = Trypanosoma cruzi growth suppression in host cells – NIH3T3 host cells, beta-gal luminescence, confirmation (AID 2044); type: functional, cell-based;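 further: intracellular parasites grown in NIH/3T3 mouse fibroblasts as host cells; luminescent beta-galactosidase reporter signal from transgenic T. cruzi replicating inside host cells; inhibitors lower the luminescence signal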
[6] = NIH3T3 cell viability loss – ATP luminescence, mouse fibroblasts, counter-screen, dose response (AID 2010); type: functional, cell-based;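 further: cells exposed to compound for about 90 hours before reading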
[7] = molecular target: T1, DNA repair protein RAD52 homolog (Homo sapiens, UniProt P43351); type: functional, biochemical
T1 sequence (P43351 whole entry): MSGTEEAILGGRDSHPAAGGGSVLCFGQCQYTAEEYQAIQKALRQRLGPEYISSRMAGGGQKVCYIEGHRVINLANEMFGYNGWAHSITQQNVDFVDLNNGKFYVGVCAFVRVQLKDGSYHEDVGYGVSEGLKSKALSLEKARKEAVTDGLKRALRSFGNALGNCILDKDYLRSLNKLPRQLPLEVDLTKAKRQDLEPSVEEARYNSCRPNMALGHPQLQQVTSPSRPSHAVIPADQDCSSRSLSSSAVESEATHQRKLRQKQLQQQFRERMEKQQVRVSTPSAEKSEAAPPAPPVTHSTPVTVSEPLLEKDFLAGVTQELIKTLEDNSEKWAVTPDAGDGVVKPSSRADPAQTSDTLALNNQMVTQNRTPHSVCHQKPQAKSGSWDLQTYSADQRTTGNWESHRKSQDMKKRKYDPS

[8] = molecular target: Eukaryotic translation initiation factor 4E (Mus musculus, UniProt P63073); assay: blockers of eIF4G binding by eIF4E – biochemical, TR-FRET, dose response (AID 855); type: functional;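 further: potency for disrupting eIF4E binding to eIF4GI seen as loss of FRET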
[9] = tested on: H4; assay: Luminescence Cell-Based Dose Response HTS to Identify Activators of 5'UTR Stem-Loop Driven Prion Protein mRNA Translation in H4 Neuroglioblastoma Cells. [Related pubchem assays: 1829 (Project Summary), 1814 (Primary HTS)]; type: functional; conditions: Homo sapiens
[10] = Luminescence Cell-Based Dose Response HTS to Identify Activators of Luciferase Translation or Activity in H4 […] Cells. [Related pubchem assays: 1829 (Project Summary), 1814 (Primary HTS)]; type: functional
[11] = Luminescence Cell-Based Dose Confirmation HTS to Identify Activators of 5'UTR Stem-Loop Driven Alpha-Synuclein mRNA Translation in H4 Neuroglioblastoma Cells. [Related pubchem assays: 1829 (Project Summary), 1814 (Primary HTS)]; type: functional
[12] = molecular target: T2, Short transient receptor potential channel 4 (Mus musculus, UniProt Q9QUQ5); assay: calcium entry via TRPC4 opening agents – cell-based, HEK293 TRPC4/mu-opioid, Fluo-4 calcium, dose response (AID 434937); type: functional
T2 sequence (Q9QUQ5 whole entry): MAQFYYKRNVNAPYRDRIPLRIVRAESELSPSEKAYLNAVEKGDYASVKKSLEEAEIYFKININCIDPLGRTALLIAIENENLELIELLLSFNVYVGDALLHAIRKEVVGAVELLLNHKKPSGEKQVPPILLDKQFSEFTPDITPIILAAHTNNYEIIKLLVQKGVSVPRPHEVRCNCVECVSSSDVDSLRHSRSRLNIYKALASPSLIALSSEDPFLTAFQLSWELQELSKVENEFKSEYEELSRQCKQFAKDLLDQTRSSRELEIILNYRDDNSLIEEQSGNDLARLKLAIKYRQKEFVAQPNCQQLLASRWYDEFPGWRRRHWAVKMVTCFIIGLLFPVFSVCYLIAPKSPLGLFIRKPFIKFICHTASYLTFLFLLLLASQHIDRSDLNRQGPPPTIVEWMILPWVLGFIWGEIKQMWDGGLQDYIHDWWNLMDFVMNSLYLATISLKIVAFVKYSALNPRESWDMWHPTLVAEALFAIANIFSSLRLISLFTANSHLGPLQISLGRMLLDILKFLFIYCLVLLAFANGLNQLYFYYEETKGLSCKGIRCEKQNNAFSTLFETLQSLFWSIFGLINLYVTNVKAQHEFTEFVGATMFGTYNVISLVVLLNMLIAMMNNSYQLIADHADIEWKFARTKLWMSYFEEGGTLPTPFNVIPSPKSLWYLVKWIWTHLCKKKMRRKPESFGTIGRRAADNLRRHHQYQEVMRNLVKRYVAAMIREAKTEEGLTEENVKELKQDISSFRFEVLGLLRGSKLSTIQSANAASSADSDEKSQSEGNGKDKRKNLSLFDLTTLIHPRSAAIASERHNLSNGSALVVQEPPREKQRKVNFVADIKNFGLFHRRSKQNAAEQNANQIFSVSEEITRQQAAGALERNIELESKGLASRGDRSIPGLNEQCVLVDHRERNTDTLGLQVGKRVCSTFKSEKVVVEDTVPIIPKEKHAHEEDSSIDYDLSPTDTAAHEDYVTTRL

[13] = molecular target: Cytochrome P450 2C19 (Homo sapiens, UniProt P33261); assay: Cytochrome panel assay with activity outcomes. Panel member name: p450-cyp2c19 Compounds with AC50 equal or less than 10 uM are considered active; type: functional
[14] = molecular target: Mitogen-activated protein kinase 10 (Homo sapiens, UniProt P53779); assay: Dose response biochemical screening assay for inhibitors of c-Jun N-Terminal Kinase 3 (JNK3). [Related pubchem assays: 746 ]
[15] = blockers of CRF-binding protein–CRF-R2 complex – cell-based, uHTS hits, 384-well, dose response (AID 651639); type: functional, Homo sapiens; conditions: read-out: IC50_Mean
[16] = molecular target: T3, Corticotropin-releasing factor receptor 2/Corticotropin-releasing factor-binding protein (Homo sapiens, UniProt P24387+Q13324); assay: Dose Response confirmation of uHTS hits for small molecule antagonists of the CRF-binding protein and CRF-R2 receptor complex.; type: functional; conditions: read-out: IC50_Mean
T3 sequence (Q13324 whole entry): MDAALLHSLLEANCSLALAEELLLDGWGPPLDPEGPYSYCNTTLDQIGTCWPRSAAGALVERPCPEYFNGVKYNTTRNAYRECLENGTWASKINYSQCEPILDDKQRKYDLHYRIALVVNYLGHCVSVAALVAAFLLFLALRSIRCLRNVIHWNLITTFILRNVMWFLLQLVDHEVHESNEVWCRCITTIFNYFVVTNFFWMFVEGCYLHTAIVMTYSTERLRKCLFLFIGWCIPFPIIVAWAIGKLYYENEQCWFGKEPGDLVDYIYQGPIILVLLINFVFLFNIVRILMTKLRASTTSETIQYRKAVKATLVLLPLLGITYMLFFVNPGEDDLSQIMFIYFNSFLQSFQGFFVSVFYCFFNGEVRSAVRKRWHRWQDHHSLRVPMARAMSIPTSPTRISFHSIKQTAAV
T3 sequence (P24387 whole entry): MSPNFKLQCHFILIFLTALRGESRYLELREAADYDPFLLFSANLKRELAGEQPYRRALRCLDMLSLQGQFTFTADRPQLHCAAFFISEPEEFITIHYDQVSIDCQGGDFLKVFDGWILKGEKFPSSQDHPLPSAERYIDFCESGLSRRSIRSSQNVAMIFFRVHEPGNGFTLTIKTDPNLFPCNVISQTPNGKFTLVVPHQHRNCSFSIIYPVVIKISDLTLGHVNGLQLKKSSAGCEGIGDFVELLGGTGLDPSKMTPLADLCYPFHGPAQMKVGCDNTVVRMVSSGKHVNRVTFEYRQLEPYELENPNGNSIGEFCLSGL

[17] = molecular target: T4, Rac GTPase-activating protein 1 (Homo sapiens, UniProt Q9H0H5); assay: blockers of MgcRacGAP-driven Rac1 GTP hydrolysis – biochemical, ADP Hunter fluorescence, primary and confirmatory, confirmation (AID 624330); type: functional
T4 sequence (Q9H0H5 whole entry): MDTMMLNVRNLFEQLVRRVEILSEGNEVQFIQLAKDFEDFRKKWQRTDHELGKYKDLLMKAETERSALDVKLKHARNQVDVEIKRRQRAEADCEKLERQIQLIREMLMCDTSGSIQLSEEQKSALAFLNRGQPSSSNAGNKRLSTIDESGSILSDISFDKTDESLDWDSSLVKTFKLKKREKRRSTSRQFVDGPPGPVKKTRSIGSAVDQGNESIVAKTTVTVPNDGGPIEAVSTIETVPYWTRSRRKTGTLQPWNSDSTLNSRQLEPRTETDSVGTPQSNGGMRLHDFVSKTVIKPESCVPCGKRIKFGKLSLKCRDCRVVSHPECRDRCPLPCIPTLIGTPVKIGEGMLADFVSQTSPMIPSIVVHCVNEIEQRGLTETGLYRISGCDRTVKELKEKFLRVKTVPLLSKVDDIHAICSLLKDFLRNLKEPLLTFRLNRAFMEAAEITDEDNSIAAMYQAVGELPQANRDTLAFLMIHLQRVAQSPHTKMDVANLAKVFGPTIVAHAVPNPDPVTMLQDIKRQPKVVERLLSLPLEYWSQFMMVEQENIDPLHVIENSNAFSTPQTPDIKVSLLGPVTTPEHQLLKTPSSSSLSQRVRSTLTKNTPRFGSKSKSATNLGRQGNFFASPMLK

[18] = molecular target: T3, Corticotropin-releasing factor receptor 2/Corticotropin-releasing factor-binding protein; assay: activators of CRF receptor 2 with binding protein – uHTS hits, confirmation (AID 602473); type: functional; conditions: read-out: EC50_Mean
[19] = tested on: H9c2; assay: cells; type: functional, cell-based; conditions: Rattus norvegicus, H9c2, Myocardium;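 further: confirmatory concentration-response retest of ultra-high-throughput screening hits for modulation of myocardial damage; cell death induced by hydrogen peroxide oxidative stress; compound pretreatment for 60 min then peroxide exposure for 2 h; potency is for protecting the cells against peroxide damage rather than for killing them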
[20] = molecular target: T5, Probable nicotinate-nucleotide adenylyltransferase (Staphylococcus aureus (strain N315), UniProt P65502); type: functional, Staphylococcus aureus subsp. aureus N315;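 on IC50 Mean: confirmatory dose-response retesting of NadD inhibitor hits first found in an ultra-high-throughput screen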
[21] = tested on: Vero; assay: viability of Vero cells under compound – cytotoxicity control for flavivirus capping enzyme inhibitors (AID 588742); type: functional; conditions: Chlorocebus sabaeus
[22] = molecular target: T5, Probable nicotinate-nucleotide adenylyltransferase; type: functional, Staphylococcus aureus subsp. aureus N315; conditions: read-out: IC50_Mean
[23] = molecular target: T6, Calpain-2 catalytic subunit (Sus scrofa, UniProt P43367); assay: m-calpain protease blockers, concentration series – biochemical, fluorogenic peptide substrate, dose response (AID 1420); type: functional
T6 sequence (P43367 whole entry): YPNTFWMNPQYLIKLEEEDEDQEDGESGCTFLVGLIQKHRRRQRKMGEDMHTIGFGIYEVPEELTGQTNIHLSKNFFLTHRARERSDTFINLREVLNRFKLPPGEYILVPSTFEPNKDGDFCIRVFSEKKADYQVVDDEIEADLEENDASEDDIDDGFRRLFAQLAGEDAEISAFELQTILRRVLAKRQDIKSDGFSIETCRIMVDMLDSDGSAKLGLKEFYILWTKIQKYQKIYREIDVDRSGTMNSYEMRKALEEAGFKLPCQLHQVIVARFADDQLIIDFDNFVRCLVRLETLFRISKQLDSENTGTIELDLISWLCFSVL

[24] = cells; type: functional, cell-based
[25] = cells; type: functional, cell-based; remark: listed apart in the source

Peroxisome proliferator-activated receptor gamma/Nuclear receptor coactivator 1, sequence (P37231 whole entry): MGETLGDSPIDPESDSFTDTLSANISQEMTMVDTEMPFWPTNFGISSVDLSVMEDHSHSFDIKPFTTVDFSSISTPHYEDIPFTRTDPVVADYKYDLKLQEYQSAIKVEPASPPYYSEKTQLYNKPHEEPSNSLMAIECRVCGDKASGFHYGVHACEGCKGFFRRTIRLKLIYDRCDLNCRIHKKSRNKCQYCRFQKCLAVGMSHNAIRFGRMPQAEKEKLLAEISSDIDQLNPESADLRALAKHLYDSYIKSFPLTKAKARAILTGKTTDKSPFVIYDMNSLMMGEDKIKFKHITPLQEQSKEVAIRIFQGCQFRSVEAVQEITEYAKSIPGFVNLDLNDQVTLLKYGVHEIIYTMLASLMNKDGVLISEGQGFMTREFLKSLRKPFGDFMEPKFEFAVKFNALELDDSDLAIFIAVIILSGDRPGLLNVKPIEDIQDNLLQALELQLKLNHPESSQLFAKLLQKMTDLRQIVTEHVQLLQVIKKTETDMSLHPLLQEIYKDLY
Peroxisome proliferator-activated receptor gamma/Nuclear receptor coactivator 1, sequence (Q15788 whole entry, further chain): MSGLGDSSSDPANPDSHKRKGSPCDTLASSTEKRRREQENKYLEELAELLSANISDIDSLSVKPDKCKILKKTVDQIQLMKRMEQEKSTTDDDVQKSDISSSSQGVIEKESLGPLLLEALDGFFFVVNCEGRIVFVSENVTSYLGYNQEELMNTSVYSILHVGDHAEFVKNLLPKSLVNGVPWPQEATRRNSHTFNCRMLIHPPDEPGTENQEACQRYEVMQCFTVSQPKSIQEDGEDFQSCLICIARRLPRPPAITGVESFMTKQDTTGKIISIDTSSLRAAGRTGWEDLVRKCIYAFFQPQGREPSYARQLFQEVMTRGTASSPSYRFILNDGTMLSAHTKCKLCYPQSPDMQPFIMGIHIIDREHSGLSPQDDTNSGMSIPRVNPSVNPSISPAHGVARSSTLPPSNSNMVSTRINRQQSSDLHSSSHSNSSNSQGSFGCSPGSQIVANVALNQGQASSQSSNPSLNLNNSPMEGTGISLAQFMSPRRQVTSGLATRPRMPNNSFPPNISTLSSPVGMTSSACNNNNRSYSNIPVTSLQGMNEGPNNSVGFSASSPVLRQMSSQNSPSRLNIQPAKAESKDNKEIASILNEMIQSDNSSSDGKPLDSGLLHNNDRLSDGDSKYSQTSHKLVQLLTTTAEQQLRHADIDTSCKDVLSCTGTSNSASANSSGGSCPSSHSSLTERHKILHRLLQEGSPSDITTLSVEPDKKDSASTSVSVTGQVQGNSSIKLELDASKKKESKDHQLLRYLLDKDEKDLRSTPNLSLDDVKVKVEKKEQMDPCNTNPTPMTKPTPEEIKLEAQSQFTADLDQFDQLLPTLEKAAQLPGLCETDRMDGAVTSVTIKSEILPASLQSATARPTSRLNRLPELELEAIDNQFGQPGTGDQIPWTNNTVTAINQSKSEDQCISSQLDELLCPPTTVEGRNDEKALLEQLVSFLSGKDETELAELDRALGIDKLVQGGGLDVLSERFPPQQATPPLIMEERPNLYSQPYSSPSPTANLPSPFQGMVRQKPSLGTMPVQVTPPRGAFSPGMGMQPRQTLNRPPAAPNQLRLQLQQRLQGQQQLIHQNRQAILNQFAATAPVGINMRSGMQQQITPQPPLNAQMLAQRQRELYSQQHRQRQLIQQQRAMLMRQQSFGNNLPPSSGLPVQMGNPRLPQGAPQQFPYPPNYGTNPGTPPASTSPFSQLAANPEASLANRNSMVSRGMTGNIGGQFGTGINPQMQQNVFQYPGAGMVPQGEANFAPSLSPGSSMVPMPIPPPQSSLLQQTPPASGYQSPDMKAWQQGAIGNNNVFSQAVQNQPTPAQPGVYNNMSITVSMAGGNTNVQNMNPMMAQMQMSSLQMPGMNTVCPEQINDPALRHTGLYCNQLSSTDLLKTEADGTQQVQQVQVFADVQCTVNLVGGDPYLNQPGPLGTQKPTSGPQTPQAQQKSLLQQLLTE
Peroxisome proliferator-activated receptor gamma/Nuclear receptor coactivator 2, sequence (P37231 whole entry): as the sequence (P37231 whole entry) above
Peroxisome proliferator-activated receptor gamma/Nuclear receptor coactivator 2, sequence (Q15596 whole entry, further chain): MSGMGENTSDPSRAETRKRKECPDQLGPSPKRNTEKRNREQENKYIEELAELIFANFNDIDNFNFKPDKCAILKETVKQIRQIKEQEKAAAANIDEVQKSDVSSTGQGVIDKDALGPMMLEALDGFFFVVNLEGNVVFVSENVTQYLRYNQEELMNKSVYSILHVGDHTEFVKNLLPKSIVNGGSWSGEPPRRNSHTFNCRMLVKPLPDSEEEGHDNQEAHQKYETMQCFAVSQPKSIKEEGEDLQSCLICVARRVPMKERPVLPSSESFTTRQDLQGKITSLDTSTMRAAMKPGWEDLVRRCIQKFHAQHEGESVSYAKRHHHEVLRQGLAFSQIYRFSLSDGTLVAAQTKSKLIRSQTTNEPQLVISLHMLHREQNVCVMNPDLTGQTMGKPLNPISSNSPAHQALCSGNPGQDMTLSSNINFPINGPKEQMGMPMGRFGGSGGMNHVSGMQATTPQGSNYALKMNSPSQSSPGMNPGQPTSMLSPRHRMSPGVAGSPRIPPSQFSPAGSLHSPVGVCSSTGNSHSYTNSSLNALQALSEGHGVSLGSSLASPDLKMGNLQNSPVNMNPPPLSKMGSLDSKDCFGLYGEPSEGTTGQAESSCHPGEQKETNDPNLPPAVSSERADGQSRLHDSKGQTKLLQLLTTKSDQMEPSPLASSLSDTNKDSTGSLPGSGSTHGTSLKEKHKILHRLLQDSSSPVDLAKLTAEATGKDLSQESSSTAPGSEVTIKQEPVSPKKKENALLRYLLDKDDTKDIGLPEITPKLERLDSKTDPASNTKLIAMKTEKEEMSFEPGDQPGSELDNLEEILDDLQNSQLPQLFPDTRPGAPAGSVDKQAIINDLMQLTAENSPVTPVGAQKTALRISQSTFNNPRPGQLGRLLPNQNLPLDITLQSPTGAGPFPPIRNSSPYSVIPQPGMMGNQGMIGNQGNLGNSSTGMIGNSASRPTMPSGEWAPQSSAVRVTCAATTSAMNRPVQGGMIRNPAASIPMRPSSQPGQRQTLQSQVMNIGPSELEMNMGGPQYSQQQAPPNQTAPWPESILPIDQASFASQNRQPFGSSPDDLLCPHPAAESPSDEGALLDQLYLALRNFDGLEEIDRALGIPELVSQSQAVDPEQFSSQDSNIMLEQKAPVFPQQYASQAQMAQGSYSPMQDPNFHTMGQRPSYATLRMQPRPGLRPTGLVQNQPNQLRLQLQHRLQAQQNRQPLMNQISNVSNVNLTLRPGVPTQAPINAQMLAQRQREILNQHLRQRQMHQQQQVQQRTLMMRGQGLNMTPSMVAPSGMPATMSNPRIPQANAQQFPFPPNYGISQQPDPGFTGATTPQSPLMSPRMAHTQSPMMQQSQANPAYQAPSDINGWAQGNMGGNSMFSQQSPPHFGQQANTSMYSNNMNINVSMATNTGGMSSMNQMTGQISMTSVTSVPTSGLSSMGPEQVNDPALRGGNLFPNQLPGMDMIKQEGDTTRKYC
T5 sequence (P65502 whole entry): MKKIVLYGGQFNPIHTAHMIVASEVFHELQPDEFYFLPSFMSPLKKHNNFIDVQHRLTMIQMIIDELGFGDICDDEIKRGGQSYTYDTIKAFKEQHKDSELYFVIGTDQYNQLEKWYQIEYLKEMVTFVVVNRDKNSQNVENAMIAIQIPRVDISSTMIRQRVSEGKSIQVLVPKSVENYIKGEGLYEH
Mitogen-activated protein kinase 10, sequence (P53779 whole entry): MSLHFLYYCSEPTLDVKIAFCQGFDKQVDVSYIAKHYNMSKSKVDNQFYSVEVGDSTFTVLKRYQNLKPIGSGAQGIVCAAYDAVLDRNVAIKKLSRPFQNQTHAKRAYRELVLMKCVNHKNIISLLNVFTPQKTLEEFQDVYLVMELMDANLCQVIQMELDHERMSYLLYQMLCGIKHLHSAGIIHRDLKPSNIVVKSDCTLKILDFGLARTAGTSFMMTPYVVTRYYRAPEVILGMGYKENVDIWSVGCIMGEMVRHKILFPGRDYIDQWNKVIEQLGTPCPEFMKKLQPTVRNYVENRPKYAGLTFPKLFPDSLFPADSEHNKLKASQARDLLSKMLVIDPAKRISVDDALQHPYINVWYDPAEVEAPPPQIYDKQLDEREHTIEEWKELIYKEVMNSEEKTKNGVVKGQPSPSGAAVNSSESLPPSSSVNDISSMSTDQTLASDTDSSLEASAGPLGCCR
Cytochrome P450 2C19, sequence (P33261 whole entry): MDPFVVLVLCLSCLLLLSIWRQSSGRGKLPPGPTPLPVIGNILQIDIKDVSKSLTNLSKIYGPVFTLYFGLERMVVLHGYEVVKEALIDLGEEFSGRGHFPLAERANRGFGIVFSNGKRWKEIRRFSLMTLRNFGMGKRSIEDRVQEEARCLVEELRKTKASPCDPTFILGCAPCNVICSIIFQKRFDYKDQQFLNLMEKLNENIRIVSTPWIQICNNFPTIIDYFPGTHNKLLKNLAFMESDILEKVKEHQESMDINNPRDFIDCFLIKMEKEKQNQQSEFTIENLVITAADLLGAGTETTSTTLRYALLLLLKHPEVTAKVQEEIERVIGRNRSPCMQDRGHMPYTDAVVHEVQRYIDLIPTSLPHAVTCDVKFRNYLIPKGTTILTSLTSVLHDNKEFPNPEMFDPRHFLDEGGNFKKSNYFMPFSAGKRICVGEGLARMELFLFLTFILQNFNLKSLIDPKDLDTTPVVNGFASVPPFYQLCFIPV

O=C1CC(c2ccco2)CC(=O)C1=CNc1ccc(Br)cc1 (configuration not stated)
IC50 [1]: > 100 µM (active)

O=C(C1=C[C@@H](c2ccc(C(F)(F)F)cc2)C[C@@H](OCc2ccc(CO)cc2)O1)N1CCOCC1
EC50 [2]: > 79.4 µM (not active) | EC50 [3]: > 79.4 µM (not active) | EC50 [4]: > 79.4 µM (not active)

CN1CCN(CCCNC(=O)c2ccc(/C=C3\Sc4ccccc4N(Cc4ccccc4F)C3=O)cc2)CC1
EC50 [5]: 0.3 µM (active) | EC50 [6]: 6.91 µM (active) | AC50 [7]: 5.23 µM (active) | IC50 [8]: 50 µM (inactive)

Cc1ccc(-c2csc(NC(=O)Cc3cccs3)n2)cc1C
EC50 [9]: 15.1 µM (active) | IC50 [1]: > 100 µM (active) | EC50 [10]: 28.7 µM (active) | EC50 [11]: 10.2 µM (active)

Cc1sc(NC(=O)c2ccccc2)c(C(=O)NCCN(C)C)c1C
EC50 [12]: 3.35 µM (active) | AC50 [13]: inconclusive | IC50 [1]: > 100 µM (active)

Cn1ncc2c(NCc3ccccc3)ncnc21
IC50 [14]: > 31 µM (not active)

CC(C)CNC(=O)COC(=O)c1ccccc1OCC(=O)Nc1ccc(Br)cc1
EC50 [2]: > 79.4 µM (not active) | EC50 [3]: > 79.4 µM (not active) | EC50 [4]: > 79.4 µM (not active)

COc1cc(C=C2C(=O)c3ccccc3C2=O)cc(OC)c1OC
IC50 [15]: 1.46 µM (active) | IC50 [16]: 1.59 µM (active) | IC50 [17]: 126 µM (active) | EC50 [18]: > 53 µM (inactive)

CN(C)CCCNc1ccc(-c2nnc(O)c3ccccc23)cc1[N+](=O)[O-]
IC50 [19]: 13.9 µM (active) | AC50 [7]: 20.5 µM (active)

CC(C)n1c(=S)[nH]c2scc(-c3cccs3)c2c1=O
IC50 [20]: 13.5 µM (active) | CC50 [21]: > 40 µM (active) | IC50 [22]: 34 µM (active) | IC50 [23]: 18.2 µM (not active)

O=C(N[C@H](C(=O)N1CCC[C@H]1C(=O)NCCc1ccccc1Cl)c1ccccc1)c1cccs1
IC50 [24]: > 29.9 µM (inactive) | EC50 [25]: > 29.9 µM (inactive)

CC(NC(=O)CC(c1ccccc1)c1cc(Cl)ccc1O)c1ccccc1 (configuration not stated)
IC50 [15]: > 20 µM (inactive) | IC50 [16]: 13.1 µM (active) | EC50 [18]: > 53 µM (inactive)

COc1ccc(COC(=O)c2[nH]nc3ccccc23)cc1F
IC50 [14]: 11.4 µM (not active)

O=C(N/C(=C/c1ccc(Cl)cc1)c1nc2ccccc2[nH]1)c1ccco1
IC50 [1]: > 100 µM (active)

COc1cc2c(cc1OC)CN1CCc3cc(OC)c(OC)cc3C1C2 (configuration not stated)
AC50 [7]: 4.49 µM (active)
